The source made the active and inactive calls. The rule behind the calls is not given here.
system: not listed separately; experiment: Chikungunya virus CPE inhibition, VEEV inhibitor project, cell-based, set 2 (AID 651738); conditions: Chikungunya virus infected cells, CPE inhibition; at 50 µM (top of the series)

Row | Structure (SMILES) | inhibition
1 | CCN1CCN(C2c3ncccc3C(=O)N2c2ccccc2)CC1 (stereo not drawn) | -1.8% (inactive)
2 | COc1ccc(NC(=O)c2cc([N+](=O)[O-])ccc2N=C2CN(C)CCN2C)cc1 | 2.2% (inactive)
3 | CN1CCN(C)C(=Nc2ccc(C#N)cc2C(=O)Nc2ccccc2)C1 | 3% (inactive)
4 | CN1CCN(C)C(=Nc2ccc([N+](=O)[O-])cc2C(=O)Nc2ccccc2)C1 | -3.1% (inactive)
5 | COc1ccc(Nc2nc(=O)c3cccnc3s2)cc1 | 11.7% (inactive)
6 | CCN1CCN(Cc2nc3ccc(-c4ccccn4)cc3c(=O)n2-c2ccccc2)CC1 | 4.3% (inactive)
7 | COc1ccc(CNc2nc(=O)c3cccnc3s2)cc1 | 0.1% (inactive)
8 | O=c1c2cc([N+](=O)[O-])ccc2nc(CN2CCCNC2)n1-c1ccccc1 | -0.2% (inactive)
9 | CN1CCN(C)C(=Nc2ccc([N+](=O)[O-])cc2C(=O)Nc2ccccc2F)C1 | 8.6% (inactive)
10 | CCN1CCN(Cc2nc3ccc([N+](=O)[O-])cc3c(=O)n2-c2ccccc2F)CC1 | -0.8% (inactive)
11 | O=c1c2cc(F)c(F)cc2nc(CN2CCNCC2)n1-c1ccccc1 | -1% (inactive)
12 | O=c1c2cc([N+](=O)[O-])ccc2nc(CN2CCCNCC2)n1-c1ccccc1 | -3.1% (inactive)

system: Chikungunya virus infected cells, CPE inhibition; experiment: as above; conditions: not given

Row | Structure (SMILES) | IC50 [nM]
13 | CN(c1ccc(OCc2ccccc2)cc1)c1nc(=O)c2cccnc2s1 | 1720

From PubChem BioAssay AID651738 (Southern Research Specialized Biocontainment Screening …, 2012)
